Literature values as cited in patent US20030039701A1 (priority 2000, published 2003).
Read-outs that look alike come from different tables or passages of the source.

How the values were obtained:
[1] = supplementation
young female rats = conditions: mini-osmotic pumps
aromatase = target: T1, aromatase (Homo sapiens, UniProt P11511); conditions: relative to chrysin, AG, ANG
T1 sequence (P11511 1-503): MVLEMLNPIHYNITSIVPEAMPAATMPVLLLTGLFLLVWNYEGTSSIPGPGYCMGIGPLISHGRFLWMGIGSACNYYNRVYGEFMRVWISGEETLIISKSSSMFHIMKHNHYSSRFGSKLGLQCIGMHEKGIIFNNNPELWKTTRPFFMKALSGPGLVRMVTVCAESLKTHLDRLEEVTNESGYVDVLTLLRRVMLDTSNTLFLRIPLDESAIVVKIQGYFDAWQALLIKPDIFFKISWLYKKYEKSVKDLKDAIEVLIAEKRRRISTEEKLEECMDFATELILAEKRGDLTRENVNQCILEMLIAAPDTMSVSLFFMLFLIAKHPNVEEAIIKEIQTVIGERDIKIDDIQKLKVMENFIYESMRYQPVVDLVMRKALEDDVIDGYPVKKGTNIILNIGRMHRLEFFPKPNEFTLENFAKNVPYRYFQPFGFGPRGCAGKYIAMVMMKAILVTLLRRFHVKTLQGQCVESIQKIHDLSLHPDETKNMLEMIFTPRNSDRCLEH

hypogonadal men = conditions: Caucasian group
[2] = test system: prostate and seminal vesicle weights
[3] = 300 mg/wk for six weeks; TE: shoulders; ND: shoulders and chest
HIV-infected men = conditions: pharmacological doses
[4] = not given; remark: listed apart in the source
patients on dialysis = conditions: compared with placebo
androgen receptor = conditions: seminal vesicle

C[C@]12CC[C@H]3[C@@H](CCC4=C[C@@H](O)CC[C@@]43C)[C@@H]1CC[C@@H]2O [4-androstenediol]
urine testosterone concentration relative to 4-androstenedione [1]: 10 fold

C[C@]12CC[C@H]3[C@@H](CC=C4C[C@@H](O)CC[C@@]43C)[C@@H]1CC[C@@H]2O [5-androstenediol]
proportion of protein in the body composition (young female rats): increased the proportion of protein

COc1ccc(-c2coc3cc(O)cc(O)c3c2=O)cc1 [Biochanin A, 5,7-dihydroxy-4′-methoxyisoflavone]
aromatase inhibition (aromatase): inhibited aromatase, but to a lesser degree

C[C@]12CC[C@H](O)CC1=CC[C@@H]1[C@@H]2CC[C@]2(C)C(=O)CC[C@@H]12 [DHEA, dehydro-epiandrosterone]
plasma testosterone (50 mg dose): restored plasma testosterone to levels similar to those observed in young women | plasma testosterone (200 mg dose): slightly below the levels observed in normal men

C[C@@H]1CC2=CC(=O)CC[C@@H]2[C@H]2CC[C@]3(C)[C@@H](O)CC[C@H]3[C@@H]21 [MENT, 7α-methyl-19-nor-testosterone]
sexual interest and activity, spontaneous erection (hypogonadal men): significant increases | androgenic potency relative to testosterone [2]: four- to five-times more androgenic than testosterone | anabolic potency relative to testosterone (levator ani muscles): ten-times as potent as testosterone

CCCCCCCCCC(=O)O[C@H]1CC[C@H]2[C@@H]3CCC4=CC(=O)CC[C@@H]4[C@H]3CC[C@]12C [ND, 19-nor-testosterone decanoate]
body circumferences (of fifteen) [3]: significant increases | total weight, lean body mass, body cell mass, muscle size and strength (HIV-infected men): significant gains

CCCCCCC(=O)O[C@H]1CC[C@H]2[C@@H]3CCC4=CC(=O)CC[C@]4(C)[C@H]3CC[C@]12C [TE, testosterone enanthate]
body circumferences (of fifteen) [3]: significant increases | sexual interest and activity, spontaneous erection (hypogonadal men): significant increases

C[C@]12CC[C@H]3[C@@H](CCC4=CC(=O)CC[C@@H]43)[C@@H]1CC[C@@H]2O [nandrolone, 19-nor-testosterone]
decrease in HDL-cholesterol ([4]; body builders): 25-27% | decrease in diastolic blood pressure ([4]; body builders): 25-27% | azoospermia (lack of sperm) ([4]; nandrolone use): azoospermia | lean body mass (patients on dialysis): increased significantly | energy expenditure (young female rats): increased energy expenditure

C[C@]12CC[C@H]3[C@@H](CCC4=CC(=O)CC[C@@]43C)[C@@H]1CC[C@@H]2O [testosterone]
change of affinity to the androgen receptor on conversion by 5-α-reductase (androgen receptor): increasing by seven- to eight-fold | proportion of protein in the body composition (young female rats): increased the proportion of protein
